Drawing on ChEMBL document CHEMBL1153028, “QSAR study on maximal inhibition (Imax) of quaternary ammonium antagonists for S-(-)-nicotine-evoked dopamine release from dopaminergic nerve terminals in rat striatum” (Bioorg Med Chem, 2009), this text covers Imax for 72 compounds.

The nature of assay [1]: Antagonist activity at nAChR in Sprague-Dawley rat striatal slices assessed as inhibition of S(-)-nicotine-evoked [3H]dopamine overflow at 100 uM by liquid scintillation counting. It is filed as functional.
For assay [2], the target named is Neuronal acetylcholine receptor subunit alpha-6 (Mus musculus) (UniProt Q9R0W9). Kind of assay: Displacement of [3H]epibatidine from nAChRalpha6 in mouse brain by autoradiography. It is filed as tissue-based. (In general: Loss of bound radioactivity is the signal in a displacement assay; it reports binding, not function.)
Chain of Neuronal acetylcholine receptor subunit alpha-6 (Mus musculus) (Q9R0W9 whole entry): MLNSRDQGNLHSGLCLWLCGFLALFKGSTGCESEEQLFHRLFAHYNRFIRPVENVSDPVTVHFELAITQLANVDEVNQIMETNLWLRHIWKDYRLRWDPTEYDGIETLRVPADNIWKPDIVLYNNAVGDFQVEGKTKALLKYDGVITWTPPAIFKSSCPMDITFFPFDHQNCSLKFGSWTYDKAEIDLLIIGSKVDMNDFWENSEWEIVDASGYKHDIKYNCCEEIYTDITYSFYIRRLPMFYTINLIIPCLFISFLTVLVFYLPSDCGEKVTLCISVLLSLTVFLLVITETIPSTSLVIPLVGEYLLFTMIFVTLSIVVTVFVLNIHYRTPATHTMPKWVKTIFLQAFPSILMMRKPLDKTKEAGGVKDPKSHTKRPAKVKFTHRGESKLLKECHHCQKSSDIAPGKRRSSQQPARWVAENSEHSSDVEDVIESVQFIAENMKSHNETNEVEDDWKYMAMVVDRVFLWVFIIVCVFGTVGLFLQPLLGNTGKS

Numbered stars: 1 amine (or outer) side, 2 acyl side, 3 side chain; on linkers, the order of the positions; unused ones are H or OH. Bridge positions count the residues as written; N and C are the ends. Peptide text beside a SMILES is read from it. X1 = NC(=O)[C@@H](CN[*:2])CS[*:1]

Regarding `CCCCCCCCC[n+]1ccc2c(c1)[C@H]1[C@@H](CC2)CCN1C.[I-]`, the Imax in assay [1] was determined as 56%.

Consider `CNC1(C)C2CCC(C2)C1(C)C` (configuration not stated) [MECAMYLAMINE], for which the Imax in assay [1] turned out to be 91%.

For `CCCCCCCCCCCC[n+]1cccc2c1CC[C@@H]1CCN(C)[C@H]21.[I-]`, in assay [1], the Imax is 25%.

Consider `CCCCCC[n+]1ccccc1.[I-]`, for which, in assay [1], the Imax came to 21%.

On to `CN1CCC[C@H]1c1ccc[n+](Cc2ccccc2)c1.[Br-]`, for which, in assay [1], the Imax amounted to 0%.

Take `[Br-].[Br-].c1ccc2c(c1)ccc[n+]2CCCCCCCCC[n+]1cccc2ccccc21`: the Imax in assay [1] was 58%.

Regarding `CCCCCCCC[n+]1ccccc1.[I-]`, the Imax in assay [1] was determined as 0%.

Regarding `Cl.NC1CCCc2ncccc21` (configuration not stated), the Imax in assay [1] stood at 69%.

For `[Br-].[Br-].c1ccc2c(c1)ccc[n+]2CCCCCCCCCCCC[n+]1cccc2ccccc21`, the Imax in assay [1] amounted to 52%.

Consider `CCCCCCCCCC[n+]1cccc2c1CC[C@@H]1CCN(C)[C@H]21.[I-]`, for which the Imax in assay [1] was 93%.

`Cc1ccc[n+](CCCCCC[n+]2cccc(C)c2)c1.[I-].[I-]`: in assay [1], the Imax worked out at 7%.

For `CNC1CCCc2ncccc21.Cl` (configuration not stated), in assay [1], the Imax came to 87%.

In turn, `CC(C)C[C@@H]1NC(=O)[C@H](CC(N)=O)NC(=O)[C@H](CO)NC(=O)[C@H](Cc2cnc[nH]2)NC(=O)[C@H](CCC(=O)O)NC(=O)[C@H](CC(C)C)NC(=O)[C@H](Cc2cnc[nH]2)NC(=O)[C@@H]2CSSC[C@H](NC(=O)CN)C(=O)N[C@@H](CSSC[C@@H](C(N)=O)CNC1=O)C(=O)N[C@@H](CO)C(=O)N[C@@H](CC(N)=O)C(=O)N1CCC[C@H]1C(=O)N[C@@H](C(C)C)C(=O)N2` (H-GCCSNPVCHLEHSNL; disulfide 2-8; linker 3-C via X1) displayed an Imax in assay [2] of 62%.

Consider `C=CC[n+]1cccc([C@@H]2CCCN2C)c1.[I-]`, for which the Imax in assay [1] is reported as 0%.

With `CCCCCCCC[n+]1ccc2c(c1)[C@H]1[C@@H](CC2)CCN1C.[I-]`, the Imax in assay [1] turned out to be 60%.

`CN1CCC[C@@H]1c1ccc[n+](CCCCCCCCCCCC[n+]2cccc([C@@H]3CCCN3C)c2)c1.[Br-].[Br-]`: the Imax in assay [1] is 38%.

Turning to `CCCCC/C=C/CCC[n+]1cccc([C@@H]2CCCN2C)c1.[Br-]`, in assay [1], the Imax worked out at 85%.

Turning to `C=CCCCCCCCC[n+]1cccc([C@@H]2CCCN2C)c1.[Br-]`, the Imax in assay [1] amounted to 72%.

Consider `CCC[n+]1cccc([C@@H]2CCCN2C)c1.[I-]`, for which, in assay [1], the Imax came to 58%.

Regarding `[I-].[I-].c1ccc2c(c1)ccc[n+]2CCCCCCCCCC[n+]1cccc2ccccc21`, the Imax in assay [1] came out at 76%.

As for `CCC[n+]1ccccc1.[I-]`, the Imax in assay [1] amounted to 22%.

For `Cc1ccc[n+](CCCCCCCCCC[n+]2cccc(C)c2)c1.[I-].[I-]`, in assay [1], the Imax was determined as 63%.

With `CCCCCCC[n+]1cccc([C@@H]2CCCN2C)c1.[I-]`, the Imax in assay [1] is recorded as 75%.

As for `[I-].[I-].c1cc[n+](CCCCC[n+]2ccccc2)cc1`, the Imax in assay [1] is reported as 0%.

On to `CCCCCCCCCCCCCCCCCCCC[n+]1ccccc1.[Br-]`, for which the Imax in assay [1] came to 60%.

Consider `Cc1ccc[n+](CCCCCCC[n+]2cccc(C)c2)c1.[Br-].[Br-]`, for which the Imax in assay [1] is recorded as 54%.

Consider `[I-].[I-].c1cc[n+](CCCCCCCC[n+]2ccccc2)cc1`, for which, in assay [1], the Imax is on record as 0%.

As for `CCCCCCCCCCCCCCC[n+]1ccccc1.[I-]`, the Imax in assay [1] was 58%.

Consider `Cl.NC1CCCc2ccncc21` (configuration not stated), for which the Imax in assay [1] came out at 56%.

Consider `CCCC/C=C\CC[n+]1cccc([C@@H]2CCCN2C)c1.[Br-]`, for which the Imax in assay [1] was 83%.

Take `[I-].[I-].c1cc[n+](CCCCCCCCCC[n+]2ccccc2)cc1`: in assay [1], the Imax was 27%.

For the compound `[Br-].[Br-].c1cc[n+](CCCCCCCCCCCC[n+]2ccccc2)cc1`, in assay [1], the Imax came out at 91%.

Regarding `[Br-].[Br-].c1ccc2c[n+](CCCCCCCCC[n+]3ccc4ccccc4c3)ccc2c1`, the Imax in assay [1] turned out to be 0%.

Take `CCCCCCCCCCC[n+]1cccc2c1CC[C@@H]1CCN(C)[C@H]21.[I-]`: the Imax in assay [1] amounted to 79%.

As for `[Br-].[Br-].c1ccc2c[n+](CCCCCCCCCCC[n+]3ccc4ccccc4c3)ccc2c1`, in assay [1], the Imax amounted to 55%.

Consider `[Br-].[Br-].c1cc[n+](CCCCCCCCC[n+]2ccccc2)cc1`, for which, in assay [1], the Imax amounted to 28%.

Take `CCCC[n+]1cccc([C@@H]2CCCN2C)c1.[I-]`: the Imax in assay [1] came out at 80%.

On to `Cc1ccc[n+](CCCCCCCC[n+]2cccc(C)c2)c1.[I-].[I-]`, for which, in assay [1], the Imax is 53%.

In the case of `CCCCCCCC[n+]1cccc2c1CC[C@@H]1CCN(C)[C@H]21.[I-]`, the Imax in assay [1] is recorded as 88%.

Consider `[I-].[I-].c1ccc2c[n+](CCCCCCCC[n+]3ccc4ccccc4c3)ccc2c1`, for which the Imax in assay [1] was determined as 74%.

For the compound `CCCCCCCC[n+]1cccc([C@@H]2CCCN2C)c1.[I-]`, the Imax in assay [1] was 88%.

For `CCCCCCC[n+]1ccccc1.[I-]`, in assay [1], the Imax came to 0%.

`CCCCCCCCCC[n+]1ccc2c(c1)[C@H]1[C@@H](CC2)CCN1C.[I-]`: in assay [1], the Imax is 67%.

With `[I-].[I-].c1ccc2c[n+](CCCCCC[n+]3ccc4ccccc4c3)ccc2c1`, in assay [1], the Imax stood at 47%.

Consider `CCCCCCCCC[n+]1cccc([C@@H]2CCCN2C)c1.[I-]`, for which, in assay [1], the Imax is recorded as 100%.

With `CN(C)C1CCCc2ccncc21.Cl` (configuration not stated), in assay [1], the Imax turned out to be 68%.

For the compound `CCCCCCCCCCC[n+]1ccc2c(c1)[C@H]1[C@@H](CC2)CCN1C.[I-]`, in assay [1], the Imax was found to be 72%.

As to `Cc1ccc[n+](CCCCCCCCCCC[n+]2cccc(C)c2)c1.[Br-].[Br-]`, the Imax in assay [1] turned out to be 68%.

In the case of `CCCCCCCCCC[n+]1cccc(C)c1.[I-]`, the Imax in assay [1] is recorded as 73%.

Turning to `CN(C)C1CCCc2ncccc21.Cl` (configuration not stated), the Imax in assay [1] turned out to be 53%.

On to `CCCCCCC#CCC[n+]1cccc([C@@H]2CCCN2C)c1.[Br-]`, for which the Imax in assay [1] was determined as 29%.

Consider `Cc1ccc[n+](CCCCCCCCC[n+]2cccc(C)c2)c1.[Br-].[Br-]`, for which the Imax in assay [1] is given as 63%.

Turning to `CCCC/C=C/CC[n+]1cccc([C@@H]2CCCN2C)c1.[Br-]`, the Imax in assay [1] stood at 79%.

On to `[I-].[I-].c1ccc2c[n+](CCCCCCCCCC[n+]3ccc4ccccc4c3)ccc2c1`, for which the Imax in assay [1] is 65%.

As for `CCCCCCCCCCCC[n+]1ccc2c(c1)[C@H]1[C@@H](CC2)CCN1C.[I-]`, the Imax in assay [1] was 62%.

Turning to `CCCC[n+]1ccccc1.[I-]`, the Imax in assay [1] was found to be 2%.

With `CCCCCCCCCCCC[n+]1cccc(C)c1.[I-]`, the Imax in assay [1] is recorded as 63%.

With `CNC1CCCc2ccncc21.Cl` (configuration not stated), the Imax in assay [1] is listed as 57%.

Consider `CCCCCC[n+]1cccc([C@@H]2CCCN2C)c1.[I-]`, for which, in assay [1], the Imax is given as 80%.

For `CC[n+]1ccccc1.[I-]`, in assay [1], the Imax is given as 0%.

Take `C=CCCCCCCCCC[n+]1cccc([C@@H]2CCCN2C)c1.[Br-]`: in assay [1], the Imax worked out at 87%.

On to `C=CCCCCCC[n+]1cccc([C@@H]2CCCN2C)c1.[Br-]`, for which, in assay [1], the Imax is 87%.

As for `CCCCCCCCC[n+]1cccc2c1CC[C@@H]1CCN(C)[C@H]21.[I-]`, the Imax in assay [1] is recorded as 86%.

Turning to `CN1CCC[C@H]1c1ccc[n+](C)c1.[I-]`, in assay [1], the Imax is listed as 0%.

Regarding `CCCCCCCCCCCC[n+]1cccc([C@@H]2CCCN2C)c1.[I-]`, in assay [1], the Imax was 95%.

Regarding `CCCCC#CCC[n+]1cccc([C@@H]2CCCN2C)c1.[Br-]`, in assay [1], the Imax amounted to 47%.

For `[I-].[I-].c1ccc2c(c1)ccc[n+]2CCCCCC[n+]1cccc2ccccc21`, the Imax in assay [1] is given as 55%.

With `C[n+]1ccccc1.[I-]`, the Imax in assay [1] stood at 0%.

Turning to `Cc1ccc[n+](CCCCCCCCCCCC[n+]2cccc(C)c2)c1.[Br-].[Br-]`, in assay [1], the Imax turned out to be 78%.

As to `[I-].[I-].c1ccc2c(c1)ccc[n+]2CCCCCCCC[n+]1cccc2ccccc21`, in assay [1], the Imax amounted to 71%.

Take `[Br-].[Br-].c1ccc2c[n+](CCCCCCCCCCCC[n+]3ccc4ccccc4c3)ccc2c1`: the Imax in assay [1] is listed as 53%.

Consider `CCCCC[n+]1ccccc1.[I-]`, for which the Imax in assay [1] amounted to 44%.
